In ChEMBL document CHEMBL1129007, “The design and synthesis of novel adenosine agonists” (Bioorg Med Chem Lett, 1996):
pEC50: −log10 of the molar value.

Legend:
[1] = Compound was evaluated for the maximal inhibition of (-)-isoproterenol stimulated cAMP accumulation in DDT-1 MF-2 cells; type: functional, Cricetulus griseus
Adenosine receptor A1 = target: T1, Adenosine receptor A1 (Homo sapiens, UniProt P30542); experiment: Compound was evaluated for the Adenosine A1 receptor agonist potency.; type: functional, Cricetulus griseus
T1 sequence (P30542 whole entry): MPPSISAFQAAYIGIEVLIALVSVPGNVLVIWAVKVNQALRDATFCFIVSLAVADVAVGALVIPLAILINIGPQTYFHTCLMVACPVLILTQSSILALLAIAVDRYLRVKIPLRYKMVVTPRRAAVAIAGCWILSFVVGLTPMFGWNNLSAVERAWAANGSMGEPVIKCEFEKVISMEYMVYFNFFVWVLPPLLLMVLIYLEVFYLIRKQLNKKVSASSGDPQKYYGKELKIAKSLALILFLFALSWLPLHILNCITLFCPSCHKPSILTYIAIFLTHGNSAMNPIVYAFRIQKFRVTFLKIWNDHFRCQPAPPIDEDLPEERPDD

| Compound | Max inhibition [1] [%] | pEC50 (Adenosine receptor A1) |
| --- | --- | --- |
| OC[C@H]1O[C@@H](n2cnc3c(N[C@H]4CC5CC4C4OC54)ncnc32)[C@H](O)[C@@H]1O (stereo not given in full) | 81 | 9.09 |
| OC[C@H]1O[C@@H](n2cnc3c(N[C@@H]4CC5CC4C4OC54)ncnc32)[C@H](O)[C@@H]1O (stereo not given in full) | 82 | 8.00 |
| OC[C@H]1O[C@@H](n2cnc3c(NC4CCCC4)ncnc32)[C@H](O)[C@@H]1O [N6-CYCLOPENTYLADENOSINE] | 80 |  |
